One data set has as its target T1, vitamin D receptor (Sus scrofa, UniProt A3RGC1).
T1 sequence (A3RGC1 1-427): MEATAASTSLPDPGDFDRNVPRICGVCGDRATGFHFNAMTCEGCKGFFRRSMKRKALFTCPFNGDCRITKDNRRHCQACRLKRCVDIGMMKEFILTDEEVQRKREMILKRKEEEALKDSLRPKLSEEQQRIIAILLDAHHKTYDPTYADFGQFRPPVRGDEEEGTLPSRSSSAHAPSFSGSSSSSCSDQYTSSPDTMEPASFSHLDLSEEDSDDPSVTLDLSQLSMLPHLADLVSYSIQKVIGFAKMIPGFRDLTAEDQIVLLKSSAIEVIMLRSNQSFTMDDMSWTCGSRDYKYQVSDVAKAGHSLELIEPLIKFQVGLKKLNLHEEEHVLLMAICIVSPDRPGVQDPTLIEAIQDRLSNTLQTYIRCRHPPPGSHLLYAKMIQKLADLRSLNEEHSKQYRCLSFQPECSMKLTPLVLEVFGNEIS
Kind of data set: calcitriol-receptor test (competition with 3H-calcitriol). The following applies: protein extract from intestines of juvenile pigs.

The conditions of data set [1]: rat, in vivo, sc.
Method: (§1) To determine the acute hypercalcemic action of various calcitriol derivatives, the test that is described below is carried out:
(§2) During the testing time, the rats are kept in special cages to determine the excretion-of water-and mineral substances. Urine is collected in 2 fractions (0-16 hours and 16-22 hours). An oral dose of calcium (0.1 mmol of calcium in 6.5% alpha-hydroxypropyl-cellulose, 5 ml/animal) replaces at 1600 hours the calcium intake that is lacking by food deprivation. At the end of the test, the animals are killed by decapitation and exsanguinated to determine the serum-calcium values. For the primary screen test in vivo, an individual standard dose (200 μg/kg) is tested. For selected substances, the result is supported by establishing a dose-effect relation.
(§3) The significance of differences occurring between substance groups and controls and between test substance and reference substance are supported with suitable statistical processes.
The subject of another data set is HL 60 cells. The data set is described as follows: differentiation induction of HL 60 cells to macrophages (NBT reduction). Particulars: 96 hours incubation, reference calcitriol. In kind it is cell-based, human. The procedure: The differentiation-stimulating action of calcitriol analogues is also detected quantitatively.
It is known in the literature [D. J. Mangelsdorf et al., J. Cell. Biol. 98: 391 (1984)] that the treatment of human leukemia cells (promyelocyte cell line HL 60) in vitro with calcitriol induces the differentiation of cells to macrophages.
HL 60 cells are cultivated in tissue culture medium (RPMI 10% fetal calf serum) at 37° C. in an atmosphere of 5% CO2 in air.
For substance testing, the cells are centrifuged off, and 2.0×10^5 cells/ml in phenol red-free tissue culture medium is taken up. The test substances are dissolved in ethanol and diluted with tissue culture medium without phenol red to the desired concentration. The dilution stages are mixed with the cell suspension at a ratio of 1:10, and 100 μl each of this cell suspension that is mixed with substance is pipetted into an indentation of a 96-hole plate. For control, a cell suspension is mixed analogously with the solvent.
After incubation for 96 hours at 37° C. in 5% CO2 in air, 100 μl of an NBT-TPA solution (nitro blue tetrazolium (NBT), final concentration in the batch of 1 mg/ml, tetradecanoyl phorbolmyristate-13-acetate (TPA), final concentration in the batch of 2×10^−7 mol/l) is pipetted into each indentation of the 96-hole plate in the cell suspension.
By incubation for 2 hours at 37° C. and 5% CO2 in air, NBT is reduced to insoluble formazan because of the intracellular oxygen radical release, stimulated by TPA, in the cells that are differentiated to macrophages.
To complete the reaction, the indentations of the 96-hole plate are suctioned off, and the cells are affixed to the bottom of the plate by adding methanol and dried after affixing. To dissolve the intracellular formazan crystals that are formed, 100 μl of potassium hydroxide (2 mol/l) and 100 μl of dimethyl sulfoxide are pipetted into each indentation and ultrasonically treated for 1 minute. The concentration of formazan is measured by spectrophotometry at 650 nm.
As a yardstick for the differentiation induction of HL 60 cells to macrophages, the concentration of formed formazan applies.

Data set [2] can be described thus: acute hypercalcemic action after one-time subcutaneous administration (serum calcium). Particulars: male rats, reference calcitriol.
Method: as §1, §2, §3

Structures are written as SMILES. Where two headings read alike, the source gives them in different places.

Method for vitamin D receptor: The vitamin D activity of the substances according to the invention is determined with the aid of the calcitriol-receptor test. It is carried out using a protein extract from the intestines of juvenile pigs. […] To this end, 250 μl of a charcoal-dextran suspension is fed to each test tube and incubated at 4° C. for 20 minutes. Then, the samples are centrifuged at 10,000 g for 5 minutes at 40° C. The supernatant is decanted and measured in a β-counter after 1 hour of equilibration in Picofluor 15™.
The competition curves that are obtained at various concentrations of test substance as well as of reference substance (unlabeled calcitriol) at constant concentration of the reference substance (^3H-calcitriol) are placed in relation to one another, and a competition factor (KF) is determined.
It is defined as a quotient of the concentrations of the respective test substance and the reference substance, which are necessary for 50% competition:
KF=Concentration of test substance at 50% competition/Concentration of reference substance at 50% competition

As to `CC(CCCC(O)c1cocn1)C1CCC2C(=CC=C3CC(O)CC(O)C3)CCCC21C` [16a, (7E)-(1R,3R,24aR)-24a-(Oxazol-4-yl)-24a-homo-19-nor-9,10-secochola-5,7-diene-1,3,24a-triol], on vitamin D receptor, the “KF (competition factor: concentration of test substance / reference substance at 50% competition)” value was 5. The “DR (Ca) (dose ratio for hypercalcemia, test substance dose/reference substance dose for comparable actions)” value in data set [1] was above 30. The “DR (HL 60) (dose ratio test substance/reference substance for comparable semi-maximum actions)” value in the data set on HL 60 cells was found to be 5.
On to `C=C1C(=CC=C2CCCC3(C)C2CCC3C(C)CCCC(O)c2cocn2)CC(O)CC1O` [20a, (5Z,7E)-(1S,3R,24aR)-24a-(Oxazol-4-yl)-24a-homo-9,10-secochola-5,7,10(19)-triene-1,3,24a-triol], for which the “DR (Ca) (dose ratio for hypercalcemia, test substance dose/reference substance dose for comparable actions)” value in data set [2] was above 50. Also, on vitamin D receptor, the “KF (competition factor: concentration of test substance / reference substance at 50% competition)” value was determined as 3. For the same molecule, the “DR (HL 60) (dose ratio test substance/reference substance for comparable semi-maximum actions)” value with HL 60 cells worked out at 2.
For `C[C@H](CCC[C@H](O)c1cccs1)[C@H]1CC[C@H]2/C(=C/C=C3C[C@@H](O)C[C@H](O)C3)CCC[C@]12C` [55b, (7E)-(1R,3R,24aS)-24a-(thien-2-yl)-24a-homo-19-nor-9,10-secochola-5,7-diene-1,3,24a-triol], the “KF (competition factor: concentration of test substance / reference substance at 50% competition)” value on vitamin D receptor worked out at 5. Moreover, in data set [1], the “DR (Ca) (dose ratio for hypercalcemia, test substance dose/reference substance dose for comparable actions)” value is on record as above 100. Besides, the “DR (HL 60) (dose ratio test substance/reference substance for comparable semi-maximum actions)” value in the data set on HL 60 cells is 8.
On the same counts, the results for `C=C1C(=CC=C2CCCC3(C)C2CCC3C(C)CCC(O)c2nccs2)CC(O)CC1O` [217a, (5Z,7E)-(1S,3R,24S)-24-(Thiazol-2-yl)-9,10-secochola-5,7,10(19)-triene-1,3,24-triol] are 7, above 300 and 100.
With `C=C1/C(=C\C=C2/CCC[C@]3(C)[C@@H]([C@H](C)CCCC(C)(C)O)CC[C@@H]23)C[C@@H](O)C[C@@H]1O` [Calcitriol, 1,25-dihydroxy vitamin D3, reference compound], in data set [2], the “DR (Ca) (dose ratio for hypercalcemia, test substance dose/reference substance dose for comparable actions)” value is reported as 1. For the same molecule, the “DR (HL 60) (dose ratio test substance/reference substance for comparable semi-maximum actions)” value in the data set with HL 60 cells worked out at 1.
With `C[C@H](CCCC(=O)c1cccs1)[C@H]1CC[C@H]2/C(=C/C=C3C[C@@H](O)C[C@H](O)C3)CCC[C@]12C` [compound 57, (7E)-(1R,3R)-1,3-Dihydroxy-24a-(thien-2-yl)-24a-homo-19-nor-9,10-secochola-5,7-dien-24a-one], at vitamin D receptor, the “KF (competition factor: concentration of test substance / reference substance at 50% competition)” value is listed as 12. The “DR (Ca) (dose ratio for hypercalcemia, test substance dose/reference substance dose for comparable actions)” value in data set [1] is above 350. Moreover, in the data set with HL 60 cells, the “DR (HL 60) (dose ratio test substance/reference substance for comparable semi-maximum actions)” value came to 2.

These data come from patent US6603031B1, “Vitamin D derivatives with cyclic substructures in the side chains, process and intermediate products for their production, and the use for the production of pharmaceutical agents” (Schering Aktiengesellschaft, priority 1999, dated 2003).
